The source of these data is paper PMC11279465, “Dual Inhibitors of P-gp and Carbonic Anhydrase XII (hCA XII) against Tumor Multidrug Resistance with Piperazine Scaffold” (Molecules, 2024).

In general, pKi refers to the Ki on a negative log10 scale, so that one unit is a factor of ten.

In one test the target is T1, hCA I (Homo sapiens, UniProt P00915).
T1 construct: made in house
Briefly: CA inhibition, stopped-flow CO2 hydrase assay. It counts as biochemical. Particulars: stopped-flow technique; incubation time 6 h; mean of 3 assays. Here is the method: (§1) Four hCA isoforms were used in this assay: the cytosolic hCA I and II and the tumor-associated transmembrane hCA IX and XII isoforms. Acetazolamide (AAZ) was used as a standard inhibitor.
(§2) An SX.18MV-R Applied Photophysics (Oxford, UK) stopped-flow instrument has been used to assay the catalytic/inhibition of various CA isozymes. […] Saturated CO2 solutions in water at 25 °C were used as substrate. Stock solutions of inhibitors were prepared at a concentration of 10 μM (in DMSO-water 1:1, v/v) and dilutions up to 0.01 nM were carried out with the assay buffer mentioned above. […] Inhibitor and enzyme solutions were preincubated together for 6 h at room temperature prior to assay in order to allow for the formation of the E-I complex. […] The inhibition constants were obtained by non-linear least-squares methods using the Cheng–Prusoff equation, as reported earlier, and represent the mean from at least three different determinations.

In a further test the target is T2, hCA II (Homo sapiens, UniProt P00918).
T2 construct: made in house
Briefly: CA inhibition, stopped-flow CO2 hydrase assay. The settings on record: stopped-flow technique; incubation time 6 h; mean of 3 assays. The format is biochemical. Here is the method: as §1, §2

In another test the target is T3, hCA IX (Homo sapiens, UniProt Q16790).
T3 construct: made in house
Briefly: CA inhibition, stopped-flow CO2 hydrase assay. It counts as biochemical. Particulars: stopped-flow technique; incubation time 6 h; mean of 3 assays. The method, then:
as §1, §2

The next test concerns the target T4, hCA XII (Homo sapiens, UniProt O43570).
T4 construct: made in house
Briefly: CA inhibition, stopped-flow CO2 hydrase assay. Particulars: stopped-flow technique; incubation time 6 h; mean of 3 assays. The format is biochemical. Here is the method: as §1, §2

Test [1] deals with K562/DOX cells. Briefly: Doxorubicin cytotoxicity enhancement assay (MTT). The format is cell-based, human. Particulars: 72 h. Here is the method: K562 is a highly undifferentiated erythroleukemia cell line. The doxorubicin-resistant K562/DOX cells overexpress almost exclusively the transporter membrane protein P-gp.
K562/DOX cells were incubated for 72 h with different concentrations of doxorubicin in combination with 1 or 3 µM of all compounds. […] HT29, A549, HT29/DOX and A549/DOX cells were incubated for 48 h with 5 µM doxorubicin, alone or in combination with 1 or 3 µM of selected compounds. Cell viability of the cell lines was measured by the MTT assay, using a Synergy HT microplate spectrofluorometer (Bio-Tek Instruments, Winooski, VT, USA). The absorbance of untreated cells was considered 100%; results were expressed as a percentage of viable treated cells versus the control untreated cells.

Test [2] relates to A549/DOX cells. Briefly: Doxorubicin co-administration assay (MTT). It counts as cell-based, human. The settings on record: compound at 3 µM + doxorubicin 5 µM, 48 h. The method, then:
(§3) These compounds were then assayed at 1 and 3 µM concentrations in co-administration with doxorubicin at a concentration of 5 µM, which is known to discriminate well between sensitive and resistant cells. […] Moreover, in the A549/DOX cell line, the co-administration of 1, 2, 4–6, 14 and 19, tested at 3 µM, led to the highest enhancement of doxorubicin toxicity reaching a reduction of nearly 55.0% in cell viability.
(§4) K562/DOX cells were incubated for 72 h with different concentrations of doxorubicin in combination with 1 or 3 µM of all compounds. IC50 was the concentration killing 50% of cells and was determined graphically from relative survival curves obtained by GraphPad Prism 5 software (GraphPad, San Diego, CA, USA). HT29, A549, HT29/DOX and A549/DOX cells were incubated for 48 h with 5 µM doxorubicin, alone or in combination with 1 or 3 µM of selected compounds. Cell viability of the cell lines was measured by the MTT assay, using a Synergy HT microplate spectrofluorometer (Bio-Tek Instruments, Winooski, VT, USA). The absorbance of untreated cells was considered 100%; results were expressed as a percentage of viable treated cells versus the control untreated cells.

The test system of test [3] is HT29/DOX cells. Briefly: Doxorubicin co-administration assay (MTT). The format is cell-based, human. Particulars: compound at 3 µM + doxorubicin 5 µM, 48 h. Here is the method: as §3, §4
For test [4], the system named is K562/DOX cells. Briefly: Intrinsic cytotoxicity (MTT). The format is cell-based, human. Particulars: compound alone at 3 µM, 72 h. The method, then: Compounds were first studied at 1 and 3 µM concentrations to evaluate their intrinsic cytotoxicity in both the parental K562 and the resistant K562/DOX cell lines, using the MTT assay. All compounds had no intrinsic cytotoxicity in the parental line.
The intrinsic toxicity of the studied compounds was determined by an MTT assay. K562 and K562/DOX were exposed for 72 h with compounds at 1 and 3 µM concentrations while HT29, A549, HT29/DOX and A549/DOX cells were incubated for 48 h with compounds used at different concentrations (from 10 nM to 50 µM). The percentage of growth compared to the untreated control was transformed into histograms with the GraphPad Prism 5 program.

Test [5] relates to A549/DOX cells. Briefly: Intrinsic cytotoxicity (MTT). The format is cell-based, human. Particulars: compound alone at 1 µM; A549/DOX; 48 h. The method, then: (§5) All compounds were preliminarily studied to evaluate their intrinsic cytotoxicity at different concentrations (from 10 nM to 50 µM) in the parental HT29 and A549 and the resistant HT29/DOX and A549/DOX cells using the MTT assay.
(§6) The intrinsic toxicity of the studied compounds was determined by an MTT assay. K562 and K562/DOX were exposed for 72 h with compounds at 1 and 3 µM concentrations while HT29, A549, HT29/DOX and A549/DOX cells were incubated for 48 h with compounds used at different concentrations (from 10 nM to 50 µM). The percentage of growth compared to the untreated control was transformed into histograms with the GraphPad Prism 5 program. […]

For test [6], the system named is HT29/DOX cells. Briefly: Intrinsic cytotoxicity (MTT). The format is cell-based, human. Particulars: compound alone at 1 µM; HT29/DOX; 48 h. Here is the method:
as §5, §6

Structures are written as SMILES. pKi: −log10 of the molar value. Values joined by “and” are separate entries in the source; they are usually repeats but may differ in a detail not shown here. Equal entries are not always repeated.

T4 sequence (O43570 25-354): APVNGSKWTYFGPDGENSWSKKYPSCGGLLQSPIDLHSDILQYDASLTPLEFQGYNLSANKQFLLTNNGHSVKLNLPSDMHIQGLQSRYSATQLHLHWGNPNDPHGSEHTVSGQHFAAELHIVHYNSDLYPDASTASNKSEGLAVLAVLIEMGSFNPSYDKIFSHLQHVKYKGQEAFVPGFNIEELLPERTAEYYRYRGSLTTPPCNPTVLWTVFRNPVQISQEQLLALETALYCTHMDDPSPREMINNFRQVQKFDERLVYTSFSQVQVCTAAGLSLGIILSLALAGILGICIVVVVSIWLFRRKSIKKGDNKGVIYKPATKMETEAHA
T1 sequence (P00915 whole entry): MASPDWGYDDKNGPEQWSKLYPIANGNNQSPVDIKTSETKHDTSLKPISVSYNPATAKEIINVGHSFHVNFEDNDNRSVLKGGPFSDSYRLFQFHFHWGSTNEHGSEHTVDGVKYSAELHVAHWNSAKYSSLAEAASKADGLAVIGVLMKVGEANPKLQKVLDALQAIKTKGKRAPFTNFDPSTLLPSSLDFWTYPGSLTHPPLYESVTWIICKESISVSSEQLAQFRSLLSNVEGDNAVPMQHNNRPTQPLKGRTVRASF

On to `COc1cc(CN2CCN(CCCOc3ccc4ccc(=O)oc4c3)CC2)cc(OC)c1OC` [Compound 14, 7-(3-(4-(3,4,5-Trimethoxybenzyl)piperazin-1-yl)propoxy)-2H-chromen-2-one], for which the pKi at hCA I was < 5.00; on hCA II, < 5.00; on hCA IX, 7.40; on hCA XII it was 7.87. Further, the “RF (Reversal Fold: IC50 of doxorubicin alone / in presence of modulator)” value in the test with K562/DOX cells [1] (compound at 1 µM) was found to be 1.0; in the test with K562/DOX cells [1] (compound at 3 µM), 3.4. The “reduction in cell viability” value is recorded as ~55.0% in the test with A549/DOX cells [2] and 65.0% with HT29/DOX cells [3].
Regarding `COc1cc(/C=C/CN2CCN(CCOc3ccc4c(C)cc(=O)oc4c3)CC2)cc(OC)c1OC` [Compound 4, (E)-4-Methyl-7-(2-(4-(3-(3,4,5-trimethoxyphenyl)allyl)piperazin-1-yl)ethoxy)-2H-chromen-2-one], the pKi at hCA I is < 5.00; at hCA II, < 5.00; at hCA IX, 7.60; on hCA XII it was 7.48. In addition, the “RF (Reversal Fold: IC50 of doxorubicin alone / in presence of modulator)” value is on record as 5.7 with K562/DOX cells [1] (compound at 1 µM) and 15.8 in the test on K562/DOX cells [1] (compound at 3 µM). Moreover, the “reduction in cell viability” value in the test on HT29/DOX cells [3] was determined as 65.0%.
For the compound `COc1ccc(C(CCCN2CCN(CCOc3ccc4ccc(=O)oc4c3)CC2)c2ccc(OC)cc2)cc1` [Compound 25, 7-(2-(4-(4,4-Bis(4-methoxyphenyl)butyl)piperazin-1-yl)ethoxy)-2H-chromen-2-one], the pKi is < 5.00 at hCA I, < 5.00 at hCA II, 6.95 on hCA IX and 7.07 at hCA XII. In addition, in the test with K562/DOX cells [1] (compound at 1 µM), the “RF (Reversal Fold: IC50 of doxorubicin alone / in presence of modulator)” value is reported as 5.9. The “reduction of cellular viability” value in the test on K562/DOX cells [4] is given as 30–50%. Moreover, the toxicity with A549/DOX cells [5] and in the test with HT29/DOX cells [6] was ≥ 35% each time.
As for `COc1cc(/C=C/CN2CCN(CCOc3ccc4ccc(=O)oc4c3)CC2)cc(OC)c1OC` [Compound 1, (E)-7-(2-(4-(3-(3,4,5-Trimethoxyphenyl)allyl)piperazin-1-yl)ethoxy)-2H-chromen-2-one], the negative-log Ki (pKi) was < 5.00 at hCA I, < 5.00 at hCA II, 7.29 on hCA IX and 7.89 at hCA XII. Also, the “RF (Reversal Fold: IC50 of doxorubicin alone / in presence of modulator)” value in the test with K562/DOX cells [1] (compound at 1 µM) was 1.6; in the test on K562/DOX cells [1] (compound at 3 µM), 2.3. In addition, the “reduction in cell viability” value in the test with A549/DOX cells [2] is recorded as ~55.0%.
In the case of `COc1cc(/C=C/CN2CCN(CCCOc3ccc4c(C)cc(=O)oc4c3)CC2)cc(OC)c1OC` [Compound 5, (E)-4-Methyl-7-(3-(4-(3-(3,4,5-trimethoxyphenyl)allyl)piperazin-1-yl)propoxy)-2H-chromen-2-one], the pKi on hCA I is < 5.00; on hCA II, < 5.00; on hCA IX it was 7.46; on hCA XII, 7.57. Further, the entries for the “RF (Reversal Fold: IC50 of doxorubicin alone / in presence of modulator)” value with K562/DOX cells [1] (compound at 1 µM) and in the test on K562/DOX cells [1] (compound at 3 µM) were 5.5 and 27.6, respectively. Also, the “reduction in cell viability” value in the test with HT29/DOX cells [3] worked out at 65.0%.
Take `COc1cc(/C=C/CN2CCN(CCCCOc3ccc4oc(=O)ccc4c3)CC2)cc(OC)c1OC` [Compound 9, (E)-6-(4-(4-(3-(3,4,5-Trimethoxyphenyl)allyl)piperazin-1-yl)butoxy)-2H-chromen-2-one]: the pKi at hCA I was < 5.00; on hCA II, < 5.00; on hCA IX, 7.66; at hCA XII, 8.14. For the same compound, the “RF (Reversal Fold: IC50 of doxorubicin alone / in presence of modulator)” value is 2.5 in the test with K562/DOX cells [1] (compound at 1 µM) and 1.3 with K562/DOX cells [1] (compound at 3 µM). Besides, the “reduction of cellular viability” value with K562/DOX cells [4] is 30–50%.
For `COc1cc(/C=C/CN2CCN(CCCOc3ccc4ccc(=O)oc4c3)CC2)cc(OC)c1OC` [Compound 2, (E)-7-(3-(4-(3-(3,4,5-Trimethoxyphenyl)allyl)piperazin-1-yl)propoxy)-2H-chromen-2-one], the pKi at hCA I is < 5.00; at hCA II it was < 5.00; at hCA IX, 7.20; on hCA XII, 7.53. The “RF (Reversal Fold: IC50 of doxorubicin alone / in presence of modulator)” value is listed as 3.8 in the test on K562/DOX cells [1] (compound at 1 µM) and 4.5 with K562/DOX cells [1] (compound at 3 µM). Moreover, in the test with A549/DOX cells [2], the “reduction in cell viability” value was ~55.0%.
In the case of `COc1cc(CN2CCN(CCOc3ccc4oc(=O)ccc4c3)CC2)cc(OC)c1OC` [Compound 19, 6-(2-(4-(3,4,5-Trimethoxybenzyl)piperazin-1-yl)ethoxy)-2H-chromen-2-one], the pKi was < 5.00 at hCA I, < 5.00 at hCA II, 7.07 at hCA IX and 8.24 at hCA XII. In addition, the “RF (Reversal Fold: IC50 of doxorubicin alone / in presence of modulator)” value in the test with K562/DOX cells [1] (compound at 1 µM) was found to be 1.4; in the test on K562/DOX cells [1] (compound at 3 µM) it was 2.2. The figures for the “reduction in cell viability” value in the test on A549/DOX cells [2] and in the test on HT29/DOX cells [3] were ~55.0% and 65.0%, respectively.
On to `COc1cc(/C=C/CN2CCN(CCOc3ccc4oc(=O)ccc4c3)CC2)cc(OC)c1OC` [Compound 7, (E)-6-(2-(4-(3-(3,4,5-Trimethoxyphenyl)allyl)piperazin-1-yl)ethoxy)-2H-chromen-2-one], for which the pKi at hCA I was < 5.00; on hCA II, < 5.00; at hCA IX it was 7.29; at hCA XII, 7.53. Moreover, the “RF (Reversal Fold: IC50 of doxorubicin alone / in presence of modulator)” value with K562/DOX cells [1] (compound at 1 µM) was 1 and 1.1; in the test with K562/DOX cells [1] (compound at 3 µM), 1. In addition, the “reduction of cellular viability” value with K562/DOX cells [4] is 30–50%.
